Data set [1] concerns HepG2 cells. Put plainly: 4-Acetamidophenol (APAP)-induced in vitro hepatocyte injury, MTT and LDH. It counts as cell-based, human. Conditions: 8 mM APAP; for LDH level in the cell culture supernatant: HepG2, 10 uM, 24 h (the FIGURE); for Survival rates (%) / OD Mean ± SD / Cell survival rate increase (%): HepG2, 10 μM; for Survival rates (%) / OD Mean ± SD: 24 h, MTT; for OD Mean ± SD: 570 nm; for Cell survival rate increase (%): versus model group. How it is done: Human liver cancer HepG2 cell well retained the characteristics of normal human hepatocytes, and they were grown in a DMEM medium containing 10% of fetal calf cerium (containing 100 U/mL of penicillin and 100 μg/mL of streptomycin) at the culturing conditions: 37° C., 5% of CO2 and a saturated humidity. A solution containing 0.25% of trypsin and 0.02% of EDTA was used for digestions and passages.
(§1) A MTT method was adopted. The HepG2 cells were inoculated in a 96-well cell culture plate, and after 24 hour cultures, the (+)IMM-H014, the (−)IMM-H014 and the (±)IMM-H014 were added in a non-toxic concentration whilst the 4-acetamidophenol (APAP, a final concentration of 8 mM) was added thereto. A Bicyclol positive control group, a solvent control group and a model group were set for the experiment. The culture was continued for 24 h. 100 μL of the culture solution was taken and centrifuged, and a full-automatic biochemical analyzer in a LDH detection kit was utilized to detect the LDH level therein. The remaining culture solution was discarded, and to each well, 100 μL of a MTT (0.5 mg/mL) solution was added to continue the culture for 4 hours. The MTT solution was discarded, and to each well, 150 μL of DMSO was added. The mixture was oscillated by a mixing oscillator, and the absorbance value was measured at a wavelength of 570 nm in a microplate reader. Cell survival rate (%)=(OD mean of administration group/OD mean of solvent control group)×100%.
(§2) The data were presented as a number mean±standard deviation (x±SD).

Data set [2] relates to HepG2 cells. Put plainly: Carbon tetrachloride (CCl4)-induced in vitro hepatocyte injury, MTT. The data set is classed as cell-based, human. Particulars: HepG2, 10 μM; for Cell survival rate increase (%): 0.6% CCl4, versus model group. The procedure:
Human liver cancer HepG2 cells well retained the characteristics of normal human hepatocytes, and they were grown in a DMEM medium containing 10% of fetal calf cerium (containing 100 U/mL of penicillin and 100 μg/mL of streptomycin) at the culturing conditions: 37° C., 5% of CO2 and a saturated humidity. A solution containing 0.25% of trypsin and 0.02% of EDTA was used for digestions and passages.
as §1, with “carbon tetrachloride (CCl4,” for “4-acetamidophenol (APAP,”, “0.6%)” for “8 mM)”, “They acted on the cells continuously” for “The culture was continued”, “h.” for “h. 100 μL of the culture solution was taken and centrifuged, and a full-automatic biochemical analyzer in a LDH detection kit was utilized to detect the LDH level therein.”, “The” for “The remaining”, “to” for “to continue the”
as §2

Data set [3] in a line: Pharmacokinetics in male SD rats after intragastric administration. The data set is classed as in vivo, rat. Particulars: 50 mg/kg intragastric, plasma. How it is done:
Male SD rats were intragastrically administrated with the single enantiomer and racemate of IMM-H014, to compare their pharmacokinetic characteristics in rat bodies.
36 male SD rats were randomly divided into 6 groups, 6 animals in each group, including: (+)IMM-H014 intragastric administration group, (−)IMM-H014 intragastric administration group, and (±)IMM-H014 intragastric administration group. The administration dosage was 50 mg/kg. The rats were in fasting for 12 hours before the administrations and they could freely drink water.
100 mg of the IMM-H014 raw material drug was weighed and dissolved in 20 ml of purified water to prepare a 5 mg/ml administration solution, which was administrated (1 ml/100 g) in a single dose according to body weights.
At 0 hour before administrations, and at 5 min, 10 min, 30 min, 1 h, 2 h, 3 h, 5 h, 8 h, 12 h and 24 h after administrations, 250 μL of blood was taken from fundus plexus venosus, placed in an EP tube containing 10 μL of heparin sodium, and centrifuged at 4000 rpm for 10 min, and then the blood plasma was taken and stored in a refrigerator at −80° C.
50 μL of a plasma sample was precisely pipetted, and after 10 μL of an internal standard working solution was added thereto, they were placed in a 1.5 ml EP. They were whirled for 30 s and added with 500 μl of ethyl acetate. Then, they were whirled and vibrated for 5 min, and after being kept still for 10 min at 4° C., they were centrifuged for 5 min at 13000 r. The supernatant was taken and dried by blowing N2 at 30° C. The residue was re-dissolved by adding 100 μL of the initial mobile phase and centrifuged for 5 min at 13000 r, and the supernatant was transferred into a sampling bottle for measurements.
• Chromatographic column: Agilent ZORBAX SB-C18 (2.1×100 mm, 3.5 μm) • Mobile phase A: water (0.1% formic acid, 1 mM ammonium acetate); mobile • phase B: acetonitrile (0.1% formic acid) • Column temperature: at 35° C.; sampling amount: 3 μL • Elution: 0-2 min: 40%-53% of the B; 2-3 min: 53%-40% of the B 4.4 Mass Spectrometry Conditions
Ion source: ESI; detection mode: positive ions; temperature of drying gases: 300° C.; flow rate of drying gases: nitrogen gas, 11 L/min; atomizing gas: nitrogen, […]; capillary voltage: 4000 V; scanning mode: Multiple Reaction Measurement (MRM); ion pairs and related voltage parameters were shown below:
The original data obtained after samples were collected was treated by adopting MassHunter QQQ data processing software, to obtain blood-drug concentration data; then, the pharmacokinetic parameters were calculated through DAS software; finally, the t-test was performed by adopting SPSS software, to compare if there were statistical differences in drugs having the same optical activity but in different batches and in drugs having different optical activities, wherein the P<0.05 was considered to have significant differences. In the study, by intragastrically administrating 3 groups of SD rats with the single enantiomer and racemate of the IMM-H014 respectively, their pharmacokinetic characteristics in the rat bodies were studied.

Data set [4] concerns HepG2 cells. Nature of the data set: Toxicity to HepG2 cells (cell survival rate, 48 h). It counts as cell-based, human. Particulars: HepG2, 10 μM, not significantly toxic. An excerpt:
The concentration was utilized to investigate the protective effects on APAP injured hepatocytes.
The concentration was utilized to investigate the protective effects on CCl4 injured hepatocytes.

Several values for one entry are separate records, joined by “and”; a condition that tells them apart may be missing. Identical values can stand only once. Like-named read-outs stand apart in the source and are kept apart here.

By Cmax is commonly meant the highest concentration seen after dosing. What is called Tmax is the time from dosing to the highest level. Take `COC(=O)c1cc(OC)c2c(c1-c1c(CN3CCOCC3)cc(OC)c3c1OCO3)OCO2` (racemic) [(±)IMM-H014]: in the data set with HepG2 cells [1], the “LDH level in the cell culture supernatant” value (“LDH level” for short) is “could reduce the LDH levels”, the “Survival rates (%)” value came out at 50.63%, the “OD Mean ± SD” value is listed as 0.453 ± 0.032 and the “Cell survival rate increase (%)” value worked out at 32.1%. Also, the “Survival rates (%)” value in the data set on HepG2 cells [2] (0.6% CCl4, 24 h, MTT) was 92.09%. The “Cell survival rate increase (%)” value in the data set with HepG2 cells [2] stood at 18.74%. In data set [3], the “AUC (0-t)” value is 5242 ± 3447 ng·h/mL, the “AUC (0-∞)” value stood at 5268 ± 3432 ng·h/mL, the CLz/F is 233 ± 155 mL/min/kg and the Cmax stood at 3324 ± 2307 ng/mL. In data set [3], the time of peak concentration (Tmax) was found to be 12.5 ± 9 min and the t1/2z worked out at 72.36 ± 16.2 min. Besides, the cell survival rate in the data set with HepG2 cells [4] came to 90%.
`COC(=O)c1cc(OC)c2c(c1-c1c(CN3CCOCC3)cc(OC)c3c1OCO3)OCO2` [(+)IMM-H014]: in the data set with HepG2 cells [1], the “LDH level” value was “could reduce the LDH levels”; the “Survival rates (%)” value is 54.58%; the “OD Mean ± SD” value was found to be 0.489 ± 0.098; the “Cell survival rate increase (%)” value was 41.4% and 42.4%. Moreover, in the data set on HepG2 cells [2] (0.6% CCl4, 24 h, MTT), the “Survival rates (%)” value is reported as 87.32%. For the same compound, the “OD Mean ± SD” value in the data set with HepG2 cells [2] (0.6% CCl4, 24 h, MTT, 570 nm) is reported as 0.799 ± 0.014. In addition, the “Cell survival rate increase (%)” value in the data set with HepG2 cells [2] was determined as 12.59%. For the same compound, in data set [3], the “AUC (0-t)” value worked out at 2876 ± 1978 ng·h/mL, the “AUC (0-∞)” value is 2877 ± 1977 ng·h/mL, the CLz/F worked out at 417 ± 262 mL/min/kg and the t1/2z turned out to be 59 ± 15.6 min. Moreover, the Cmax in data set [3] (male, SD, rat, po, 50 mg/kg, read-out: Cmax) was 2280 ± 2000 ng/mL. In addition, in data set [3] (male, SD, rat, po, 50 mg/kg, read-out: Tmax), the time to peak (Tmax) worked out at 20 ± 11.4 min. Further, the cell survival rate in the data set on HepG2 cells [4] turned out to be 90%.
As for `COC(=O)c1cc(OC)c2c(c1-c1c(CN3CCOCC3)cc(OC)c3c1OCO3)OCO2` [(−)IMM-H014], in the data set on HepG2 cells [1], the “LDH level” value is “could reduce the LDH levels”, the “Survival rates (%)” value is 67.01%, the “OD Mean ± SD” value is listed as 0.600 ± 0.054^###& and the “Cell survival rate increase (%)” value amounted to 74.8%. Also, the “Survival rates (%)” value in the data set with HepG2 cells [2] (0.6% CCl4, 24 h, MTT) was found to be 104.44%. Further, the “Cell survival rate increase (%)” value in the data set on HepG2 cells [2] is 34.66%. In addition, in data set [3], the “AUC (0-t)” value is 5866 ± 2979 ng·h/mL, the “AUC (0-∞)” value is 5892 ± 3005 ng·h/mL, the CLz/F is 178 ± 103 mL/min/kg and the maximum concentration (Cmax) was found to be 3280 ± 1579 ng/mL. Further, in data set [3], the Tmax was 18 ± 10.8 min and the t1/2z was 74.88 ± 19.8 min. The compound also had a cell survival rate in the data set with HepG2 cells [4] of 90%.

For the origin of these results see patent publication US12630520B2, “Left-handed bicyclic morpholine and salt thereof, preparation method therefor, pharmaceutical composition, and use” (Institute of Materia Medica, Chinese Academy of Medical …, priority 2019, dated 2026).
